What follows are compounds tested on Male C57/BL6J mice (assay: Mouse oGTT (Oral Glucose Tolerance Test)). Details: 2 h, fasted 16 to 17 hours, compound 10 mg/kg orally 30 minutes before oral glucose load, AUC from 5 minutes before to 120 minutes after glucose, read-out: percentage decrease in plasma glucose AUC (%) compared with the negative control group.
Assay type: in vivo
Protocol: Mouse oGTT (Oral Glucose Tolerance Test)
A dosing preparation (1 mg/mL of each compound) was produced by suspending in a 0.5 w/v % methyl cellulose solution and then grinding in an agate mortar. Male C57/BL6J mice (Charles River Laboratories Japan, Inc.) were purchased at 6 to 8 weeks of age, and then used at 9 to 13 weeks of age. The mice were fasted from the hours of 17:00 to 18:00 on one day before the test day, and the test was started after 16 to 17 hours-fasting. Five mice were used for each group. Before dosing a compound, blood was collected from the tail vein. Thereafter, a suspension of the compound was orally administered at a dosage of 10 mg/kg. The 0.5 w/v % methyl cellulose solution was administered to a negative control group. Twenty five minutes after dosing the compound, blood was collected from the tail vein, and then thirty minutes after dosing the compound, 30 w/v % glucose solution was orally administered at a volume of 10 mL/kg. Blood was collected from the tail vein 15, 30, 60 and 120 minutes after the glucose administration. Each of the blood samples was centrifuged to obtain the plasma, and the plasma glucose level (mg/dL) was measured with a glucose analyzer (Glucoloader GXT, A&T Corp.). The plasma glucose AUC (mg/dL min) in each mouse was calculated using the plasma glucose values at 5 minutes before and 15, 30, 60 and 120 minutes after the glucose administration. The arithmetic mean of the AUC value was calculated for each group and the percentage decrease in plasma glucose AUC (%) compared with the negative control group was calculated as an index of the efficacy.

How did the inhibition in vivo at 10 mg/kg turn out when `CC[C@@H](Oc1ccc(C(=O)C(C)(C)C)cc1)c1nc(-c2ccc(C(=O)NC(CO)CO)c(F)c2)no1` [Example 12, 4-(5-{(1R)-1-[4-(2,2-Dimethylpropanoyl)phenoxy]propyl}-1,2,4-oxadiazol-3-yl)-2-fluoro-N-[2-hydroxy-1-(hydroxymethyl)ethyl]benzamide] was run?
The inhibition in vivo at 10 mg/kg was 5 to 20%.

With `CC[C@@H](Oc1ccc(C(=O)C2CC2)cc1)c1nc(-c2ccc(C(=O)N[C@H](C)[C@@H](O)CO)c(F)c2)no1` [Example 19, 4-(5-{(1R)-1-[4-(Cyclopropylcarbonyl)phenoxy]propyl}-1,2,4-oxadiazol-3-yl)-N-[(1R,2R)-2,3-dihydroxy-1-methylpropyl]-2-fluorobenzamide] as the compound, how does the inhibition in vivo at 10 mg/kg read?
Its inhibition in vivo at 10 mg/kg is 5 to 20%.

With `CC[C@@H](Oc1ccc(C(=O)C2(F)CC2)cc1)c1nc(-c2ccc(C(=O)NC(CO)CO)c(F)c2)no1` [Example 14, 2-Fluoro-4-{5-[(1R)-1-{4-[(1-fluorocyclopropyl)carbonyl]phenoxy}propyl]-1,2,4-oxadiazol-3-yl}-N-[2-hydroxy-1-(hydroxymethyl)ethyl]benzamide] as the compound, how does the inhibition in vivo at 10 mg/kg read?
Its inhibition in vivo at 10 mg/kg is 5 to 20%.

With `CC[C@@H](Oc1ccc(C(=O)C2CC2)cc1)c1nc(-c2ccc(C(=O)N[C@H](C)CO)c(F)c2)no1` [Example 3, 4-(5-{(1R)-1-[4-(Cyclopropylcarbonyl)phenoxy]propyl}-1,2,4-oxadiazol-3-yl)-2-fluoro-N-[(1R)-2-hydroxy-1-methylethyl]benzamide] as the compound, how does the inhibition in vivo at 10 mg/kg read?
Its inhibition in vivo at 10 mg/kg is 5 to 20%.

`CC[C@@H](Oc1ccc(C(=O)C2CC2)cc1)c1nc(-c2ccc(C(=O)NC(CO)CO)c(F)c2)no1` [Example 6, 4-(5-{(1R)-1-[4-(Cyclopropylcarbonyl)phenoxy]propyl}-1,2,4-oxadiazol-3-yl)-2-fluoro-N-[2-hydroxy-1-(hydroxymethyl)ethyl]benzamide] was tested. Which inhibition in vivo at 10 mg/kg did it give?
The inhibition in vivo at 10 mg/kg was 5 to 20%.

`CC[C@@H](Oc1ccc(C(=O)C(C)C)cc1)c1nc(-c2ccc(C(=O)NC(CO)CO)c(F)c2)no1` [Example 16, 2-Fluoro-N-[2-hydroxy-1-(hydroxymethyl)ethyl]-4-{5-[(1R)-1-(isobutyrylphenoxy)propyl]-1,2,4-oxadiazol-3-yl}benzamide] was tested. Which inhibition in vivo at 10 mg/kg did it give?
The inhibition in vivo at 10 mg/kg was 5 to 20%.

Which inhibition in vivo at 10 mg/kg does the source give for `CC[C@@H](Oc1ccc(C(=O)C2CCC2)cc1)c1nc(-c2ccc(C(=O)NC(CO)CO)c(F)c2)no1` [Example 13, 4-(5-{(1R)-1-[4-(Cyclobutylcarbonyl)phenoxy]propyl}-1,2,4-oxadiazol-3-yl)-2-fluoro-N-[2-hydroxy-1-(hydroxymethyl)ethyl]benzamide] here?
Its inhibition in vivo at 10 mg/kg is 5 to 20%.

`CC[C@@H](Oc1ccc(C(=O)C(C)C)cc1)c1nc(-c2ccc(C(=O)N[C@H](C)CO)c(F)c2)no1` [Example 15, 2-Fluoro-N-[(1R)-2-hydroxy-1-methylethyl]-4-{5-[(1R)-1-(4-isobutyrylphenoxy)propyl]-1,2,4-oxadiazol-3-yl}benzamide] was tested. Which inhibition in vivo at 10 mg/kg did it give?
The inhibition in vivo at 10 mg/kg was 5 to 20%.

Which inhibition in vivo at 10 mg/kg does the source give for `CC[C@@H](Oc1ccc(C(=O)C2CC2)cc1)c1nc(-c2ccc(C(=O)N[C@@H](CO)C(N)=O)c(F)c2)no1` [Example 2, N-[(1S)-2-Amino-1-(hydroxymethyl)-2-oxoethyl]-4-(5-{(1R)-1-[4-(cyclopropylcarbonyl)phenoxy]propyl}-1,2,4-oxadiazol-3-yl)-2-fluorobenzamide] here?
Its inhibition in vivo at 10 mg/kg is over 20%.

For `CC[C@@H](Oc1ccc(C(=O)C2CC2)cc1)c1nc(-c2ccc(C(=O)N[C@H](CO)CCO)c(F)c2)no1` [Example 17, 4-(5-{(1R)-1-[4-(Cyclopropylcarbonyl)phenoxy]propyl}-1,2,4-oxadiazol-3-yl)-2-fluoro-N-[(1S)-3-hydroxy-1-(hydroxymethyl)propyl]benzamide], which inhibition in vivo at 10 mg/kg is on record?
The inhibition in vivo at 10 mg/kg was 5 to 20%.

For `C[C@H](CO)NC(=O)c1ccc(-c2noc([C@@H](C)Oc3ccc(C(=O)C4CC4)cc3)n2)cc1F` [Example 10, 4-(5-{(1R)-1-[4-(Cyclopropylcarbonyl)phenoxy]ethyl}-1,2,4-oxadiazol-3-yl)-2-fluoro-N-[(1R)-2-hydroxy-1-methylethyl]benzamide], which inhibition in vivo at 10 mg/kg is on record?
Its inhibition in vivo at 10 mg/kg is 5 to 20%.

`CC[C@@H](Oc1ccc(C(=O)C2CC2)cc1)c1nc(-c2ccc(C(=O)NC[C@H](O)CO)c(F)c2)no1` [Example 1, 4-(5-{(1R)-1-[4-(Cyclopropylcarbonyl)phenoxy]propyl}-1,2,4-oxadiazol-3-yl)-N-[(2S)-2,3-dihydroxypropyl]-2-fluorobenzamide] was tested. Which inhibition in vivo at 10 mg/kg did it give?
Its inhibition in vivo at 10 mg/kg is over 20%.

How did the inhibition in vivo at 10 mg/kg turn out when `C[C@@H](Oc1ccc(C(=O)C2CC2)cc1)c1nc(-c2ccc(C(=O)N[C@H](C)[C@@H](O)CO)c(F)c2)no1` [Example 23, 4-(5-{(1R)-1-[4-(Cyclopropylcarbonyl)phenoxy]ethyl}-1,2,4-oxadiazol-3-yl)-N-[(1R,2R)-2,3-dihydroxy-1-methylpropyl]-2-fluorobenzamide] was run?
The inhibition in vivo at 10 mg/kg was over 20%.

With `CC[C@@H](Oc1ccc(C(=O)C2CC2)cc1)c1nc(-c2ccc(C(=O)NC[C@@H](O)CO)c(F)c2)no1` [Example 5, 4-(5-{(1R)-1-[4-(Cyclopropylcarbonyl)phenoxy]propyl}-1,2,4-oxadiazol-3-yl)-N-[(2R)-2,3-dihydroxypropyl]-2-fluorobenzamide] as the compound, how does the inhibition in vivo at 10 mg/kg read?
The inhibition in vivo at 10 mg/kg was 5 to 20%.

For `C[C@@H](CO)NC(=O)c1ccc(-c2noc([C@@H](C)Oc3ccc(C(=O)C4CC4)cc3)n2)cc1F` [Example 8, 4-(5-{(1R)-1-[4-(Cyclopropylcarbonyl)phenoxy]ethyl}-1,2,4-oxadiazol-3-yl)-2-fluoro-N-[(1S)-2-hydroxy-1-methylethyl]benzamide], which inhibition in vivo at 10 mg/kg is on record?
The inhibition in vivo at 10 mg/kg was 5 to 20%.

For `C[C@@H](Oc1ccc(C(=O)C2CC2)cc1)c1nc(-c2ccc(C(=O)NC(CO)CO)c(F)c2)no1` [Example 7, 4-(5-{(1R)-1-[4-(Cyclopropylcarbonyl)phenoxy]ethyl}-1,2,4-oxadiazol-3-yl)-2-fluoro-N-[2-hydroxy-1-(hydroxymethyl)ethyl]benzamide], which inhibition in vivo at 10 mg/kg is on record?
Its inhibition in vivo at 10 mg/kg is over 20%.

`C[C@@H](Oc1ccc(C(=O)C2CC2)cc1)c1nc(-c2ccc(C(=O)NC3CCCC3O)c(F)c2)no1` (stereo in doubt) [Example 9, 4-(5-{(1R)-1-[4-(Cyclopropylcarbonyl)phenoxy]ethyl}-1,2,4-oxadiazol-3-yl)-2-fluoro-N-[(1R,2R)-2-hydroxycyclopentyl]benzamide] was tested. Which inhibition in vivo at 10 mg/kg did it give?
Its inhibition in vivo at 10 mg/kg is 5 to 20%.

`CC[C@@H](Oc1ccc(C(=O)C2CC2)cc1)c1nc(-c2ccc(C(=O)N[C@@H](C)CO)c(F)c2)no1` [Example 4, 4-(5-{(1R)-1-[4-(Cyclopropylcarbonyl)phenoxy]propyl}-1,2,4-oxadiazol-3-yl)-2-fluoro-N-[(1S)-2-hydroxy-1-methylethyl]benzamide] was tested. Which inhibition in vivo at 10 mg/kg did it give?
The inhibition in vivo at 10 mg/kg was 5 to 20%.

With `C[C@@H](Oc1ccc(C(=O)C2CC2)cc1)c1nc(-c2ccc(C(=O)NC3CCCC3O)c(F)c2)no1` (stereo in doubt) [Example 11, 4-(5-{(1R)-1-[4-(Cyclopropylcarbonyl)phenoxy]ethyl}-1,2,4-oxadiazol-3-yl)-2-fluoro-N-[(1S,2S)-2-hydroxycyclopentyl]benzamide] as the compound, how does the inhibition in vivo at 10 mg/kg read?
Its inhibition in vivo at 10 mg/kg is 5 to 20%.
